Experiments:
in vitro = details: human
Procedure: (§1) Black 384-well clear-bottom microtiter plates (Corning, Amsterdam, The Netherlands) were filled via acoustic drop ejection using the echo liquid handler (Labcyte, Sunnyvale, Calif.). 200 nL of compound stock solutions (100% DMSO) were transferred to the assay plates. 9 serial 4-fold dilutions of compound were made, creating per quadrant the same compound concentration. The assay was initiated by adding 10 μL of culture medium to each well (RPMI medium without phenol red, 10% FBS-heat inactivated, 0.04% gentamycin (50 mg/mL). All addition steps are done by using a multidrop dispenser (Thermo Scientific, Erembodegem, Belgium). Next, rgRSV224 virus (MOI=1) diluted in culture medium was added to the plates. rgRSV224 virus is an engineered virus that includes an additional GFP gene (Hallak L K, Spillmann D, Collins P L, Peeples M E. Glycosaminoglycan sulfation requirements for respiratory syncytial virus infection; Journal of virology (2000), 74(22), 10508-13) and was in-licensed from the NIH (Bethesda, Md., USA). Finally, 20 μL of a HeLa cell suspension (3,000 cells/well) were plated. Medium, virus- and mock-infected controls were included in each test. The wells contain 0.05% DMSO per volume. Cells were incubated at 37° C. in a 5% CO2 atmosphere. Three days post-virus exposure, viral replication was quantified by measuring GFP expression in the cells by an in house developed MSM laser microscope (Tibotec, Beerse, Belgium). The EC50 was defined as the 50% inhibitory concentration for GFP expression. In parallel, compounds were incubated for three days in a set of white 384-well microtiter plates (Corning) and the cytotoxicity of compounds in HeLa cells was determined by measuring the ATP content of the cells using the ATPlite kit (Perkin Elmer, Zaventem, Belgium) according to the manufacturer's instructions. The CC50 was defined as the 50% concentration for cytotoxicity.

rgRSV224 virus = experiment: Antiviral activity: rgRSV224 (GFP) replication in HeLa cells; details: human respiratory syncytial virus, 72 h, read-out: RSV HELA EC50
Procedure: as §1

[1] = Cytotoxicity in HeLa cells (ATP content, ATPlite kit); details: human
Procedure: as §1

| SMILES | melting point | CC50 at 3 days (in vitro) | EC50 (rgRSV224 virus) | CC50 at 3 days [1] |
| --- | --- | --- | --- | --- |
| C[C@@H]1c2ccccc2CCN1C(=O)c1cc(C2CC2)n2nc(-c3ccc([C@H]4C[C@@H]4C(=O)NS(=O)(=O)C4CC4)cc3F)cc2n1 [Compound 27, (1S,2S)—N-(Cyclopropanesulfonyl)-2-(4-{7-cyclopropyl-5-[(1R)-1-methyl-1,2,3,4-tetrahydroisoquinoline-2-carbonyl]pyrazolo[1,5-a]pyrimidin-2-yl}-3-fluorophenyl)-cyclopropane-1-carboxamide] | 177.21 °C | 55800 nM | 40 nM | – |
| C[C@@H]1c2ccccc2CCN1C(=O)c1cc(C2CC2)n2nc(-c3ccc([C@H]4C[C@@H]4NC(=O)NC4CC4)cc3F)cc2n1 [Compound 30, 1-Cyclopropyl-3-[(1S,2R)-2-(4-{7-cyclopropyl-5-[(1R)-1-methyl-1,2,3,4-tetrahydro-isoquinoline-2-carbonyl]pyrazolo[1,5-a]pyrimidin-2-yl}-3-fluorophenyl)cyclopropyl]urea] | 213.73 °C | 40800 nM | 49 nM | – |
| CC(=O)N[C@H]1C[C@@H]1c1ccc(-c2cc3nc(C(=O)N4CCc5ccccc5[C@H]4C)cc(C4CC4)n3n2)c(F)c1 [Compound 34, N-[(1S,2R)-2-(4-{7-Cyclopropyl-5-[(1R)-1-methyl-1,2,3,4-tetrahydroisoquinoline-2-carbonyl]pyrazolo[1,5-a]pyrimidin-2-yl}-3-fluorophenyl)cyclopropyl]acetamide] | 232.53 °C | > 100000 nM | 22 nM | – |
| C[C@@H]1c2ccccc2CCN1C(=O)c1cc(C2CC2)n2nc(-c3ccc([C@H]4C[C@@H]4NP(C)(C)=O)cc3F)cc2n1 [Compound 37, (1R)-2-(7-Cyclopropyl-2-{4-[(1R,2S)-2-[(dimethylphosphoryl)amino]cyclopropyl]-2-fluorophenyl}pyrazolo[1,5-a]pyrimidine-5-carbonyl)-1-methyl-1,2,3,4-tetrahydroisoquinoline] | – | – | 63 nM | 41600 nM |
| C[C@@H]1c2ccccc2CCN1C(=O)c1cc(C2CC2)n2nc(-c3ccc([C@H]4C[C@@H]4OC(N)=O)cc3F)cc2n1 [Compound 39, (1S,2R)-2-(4-{7-Cyclopropyl-5-[(1R)-1-methyl-1,2,3,4-tetrahydroisoquinoline-2-carbonyl]pyrazolo[1,5-a]pyrimidin-2-yl}-3-fluorophenyl)cyclopropyl carbamate] | 297.87 °C | 12500 nM | 82 nM | – |
| CNC(=O)O[C@H]1C[C@@H]1c1ccc(-c2cc3nc(C(=O)N4CCc5ccccc5[C@H]4C)cc(C4CC4)n3n2)c(F)c1 [Compound 40, (1S,2R)-2-(4-{7-Cyclopropyl-5-[(1R)-1-methyl-1,2,3,4-tetrahydroisoquinoline-2-carbonyl]pyrazolo[1,5-a]pyrimidin-2-yl}-3-fluorophenyl)cyclopropyl N-methylcarbamate] | 274.46 °C | > 100000 nM | 138 nM | – |
| C[C@@H]1c2ccccc2CCN1C(=O)c1cc(C2CC2)n2nc(-c3ccc([C@H]4C[C@@H](CO)C4)cc3F)cc2n1 [Compound 42, [cis-3-(4-{7-Cyclopropyl-5-[(1R)-1-methyl-1,2,3,4-tetrahydroisoquinoline-2-carbonyl]-pyrazolo[1,5-a]pyrimidin-2-yl}-3-fluorophenyl)cyclobutyl]methanol] | 129.63 °C | 69200 nM | 263 nM | – |
| C[C@@H]1c2ccccc2CCN1C(=O)c1cc(C2CC2)n2nc(-c3ccc([C@H]4C[C@@H](COC(N)=O)C4)cc3F)cc2n1 [Compound 44, [cis-3-(4-{7-Cyclopropyl-5-[(1R)-1-methyl-1,2,3,4-tetrahydroisoquinoline-2-carbonyl]pyrazolo[1,5-a]pyrimidin-2-yl}-3-fluorophenyl)cyclobutyl]methyl carbamate] | 300.97 °C | > 100000 nM | 332 nM | – |
| CNC(=O)C[C@H]1C[C@@H](c2ccc(-c3cc4nc(C(=O)N5CCc6ccccc6[C@H]5C)cc(C5CC5)n4n3)c(F)c2)C1 [Compound 48, N-methyl-2-[cis-3-(4-{7-cyclopropyl-5-[(1R)-1-methyl-1,2,3,4-tetrahydroisoquinoline-2-carbonyl]pyrazolo[1,5-a]pyrimidin-2-yl}-3-fluorophenyl)cyclobutyl]acetamide] | 143.95 °C | 23900 nM | 151 nM | – |
